Measurements as given in patent US8053453B2, “Pyrazolone compounds and thrombopoietin receptor activator” (Nissan Chemical Industries, Ltd., priority 2002, dated 2011).

Key:
human TPO receptor [1] = target: T1, human TPO receptor (Homo sapiens, UniProt P40238); assay: Proliferation of TPO-dependent cell line UT7/EPO-mpl, MTT method (Assay Examples 1, 3, 4); assay type: cell-based; conditions: UT7/EPO-mpl cells; for EC50: concentration giving 50% of the maximum cell growth observed with the same compound
T1 construct: expressed in transfected cells
T1 sequence (P40238 26-635): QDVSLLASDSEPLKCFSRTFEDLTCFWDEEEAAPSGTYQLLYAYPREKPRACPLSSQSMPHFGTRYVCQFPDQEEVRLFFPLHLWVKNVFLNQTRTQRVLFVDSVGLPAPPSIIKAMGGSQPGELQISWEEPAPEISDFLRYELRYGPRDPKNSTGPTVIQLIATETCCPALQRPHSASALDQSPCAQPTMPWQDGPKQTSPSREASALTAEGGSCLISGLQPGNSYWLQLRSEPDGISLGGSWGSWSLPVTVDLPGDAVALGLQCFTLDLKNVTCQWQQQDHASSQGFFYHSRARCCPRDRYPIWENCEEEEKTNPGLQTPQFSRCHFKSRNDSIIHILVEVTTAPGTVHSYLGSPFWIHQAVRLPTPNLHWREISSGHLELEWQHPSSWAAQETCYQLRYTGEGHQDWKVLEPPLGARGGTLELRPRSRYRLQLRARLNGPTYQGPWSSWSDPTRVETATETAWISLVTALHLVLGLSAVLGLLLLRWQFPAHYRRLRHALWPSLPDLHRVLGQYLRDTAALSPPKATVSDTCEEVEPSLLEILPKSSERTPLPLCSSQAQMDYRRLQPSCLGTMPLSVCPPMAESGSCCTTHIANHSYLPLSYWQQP
Experimental: The reactivity of Synthetic Example 56, the compound of the present invention, with thrombopoietin (TPO) receptor was assayed using a human leukemic cell line, UT7/EPO-mpl.
UT7/EPO-mpl is a stable transformed cell line obtained by introducing into human leukemic cell line UT7/EPO a vector that induces expression of human TPO receptor (c-mp1) under control of a cytomegaloviral promoter by the method of Takatoku et al. (J. Biol. Chem., 272:7259-7263 (1997)). […] These two cell lines were subcultured in Iscove's modified Dulbecco's medium (IMDM; GIBCO) containing 10% fetal bovine serum (FBS; TRACE SCIENTIFIC) using a CO2 incubator (5% CO2, 37° C.).
The subcultured cells described above were washed twice with phosphate buffered saline (PBS) and suspended in IMDM containing 10% FBS at a cell density of 6×10^4 cells/ml. The cell suspension was transferred to a 96-well tissue culture plate (CORNING) in 100-μl aliquots. Then either TPO (PeproTech EC) or Synthetic Example 56 dissolved in dimethylsulfoxide (DMSO) was diluted 83-fold with IMDM containing 10% FBS and added to the aforementioned cell suspension in 20-μl aliquots. The suspension was incubated in a CO2 incubator (5% CO2, 37° C.) for 4 days. Cell proliferation was assayed according to the method of Mosmann et al. (J. Immunol. Methods, 65:55-63 (1983)). A 10-μl aliquot of 5 mg/ml MTT reagent (SIGMA) was added to each well of the tissue culture plate and the plate was incubated at 37° C. for 4 h. The formazan pigment generated was dissolved by adding 150 μl per well of 0.1 M HCl/isopropanol solution and the absorbance of the resulting pigment solution was measured at 550 nm with a 96-well microplate reader (BIO-RAD, M450).
The following Synthetic Examples were tested according to the method of Assay Example 1 to determine the maximal growth rate (efficacy), expressed by taking the value with human leukemic cell line UT7/EPO-mpl observed in the presence of 10 ng/ml TPO as 100% standard, and the concentration of each compound that yields a growth rate corresponding to 50% of the maximum cell growth observed with the same compound (EC50).
Synthetic Example 56, the compound of the present invention, and four compounds (Reference Synthetic Examples 1 to 4) described in a publication of international patent application (Publication No. WO01/34585, applied by SmithKline Beecham Corp.) were tested according to the method of Assay Example 1.

human TPO receptor [2] = target: T1, human TPO receptor; assay: Proliferation of TPO-dependent cell line UT7/EPO-mpl, WST-8 reagent (Assay Example 5); assay type: cell-based; conditions: WST-8, 4 days; for Efficacy (%) (maximal growth rate): growth with 10 ng/ml TPO = 100%
Experimental: Human leukemic cell line UT7/EPO-mpl was washed twice with PBS and suspended in IMDM containing 10% FBS at a cell density of 6×10^4 cells/ml. The cell suspension was transferred to a 96-well tissue culture plate (CORNING) in 100-μl aliquots. Then either TPO or the following Synthetic Examples, each dissolved in DMSO, were diluted 83-fold with IMDM containing 10% FBS and added to the aforementioned cell suspension in 20-μl aliquots. The suspension was incubated in a CO2 incubator (5% CO2, 37° C.) for 4 days. Cell proliferation was assayed using WST-8 reagent (Kishida Chemical, Co. Ltd.) according to instructions by the manufacturer. A 10-μl aliquot of 5 mM WST-8 reagent solution was added to each well of the tissue culture plate and the plate was incubated at 37° C. for 4 h. The formazan pigment generated was detected by measuring the absorbance at 450 nm with a 96-well microplate reader (Nihon Molecular Devices, SpectraMax 190). The concentration of each compound that yields a growth rate corresponding to 50% of the growth of human leukemic cell line UT7/EPO-mpl observed in the presence of 10 ng/ml TPO (EC50T) and the maximal growth rate achieved by the same compound (efficacy), expressed by taking the value with human leukemic cell line UT7/EPO-mpl in the presence of 10 ng/ml TPO as 100% standard, are summarized in Table 9.

[3] = value in the presence of 10 ng/ml TPO taken as 100% standard, method of Assay Example 1

Row | EC50 (human TPO receptor [1]) | Efficacy (%) (maximal growth rate) (human TPO receptor [1]; [3]) | EC50T (concentration yielding 50% of the growth observed with 10 ng/ml TPO) (human TPO receptor [2]) | Efficacy (%) (maximal growth rate) (human TPO receptor [2]) | SMILES | other results
1 | 0.025 µg/mL | 77% |  |  | CC1=NN(c2ccc(C)c(C)c2)C(=O)C1=C(C)NNC(=O)c1cccc(N)c1 [compound 74] | 
2 | 0.063 µg/mL | 89% |  |  | CC1=NN(c2ccc(C)c(C)c2)C(=O)C1=C(C)NNC(=O)c1ccc(C(F)(F)F)cc1 [compound 75] | 
3 | 0.046 µg/mL | 79% |  |  | CC1=NN(c2ccc(C)c(C)c2)C(=O)C1=C(C)NNC(=O)c1ccc(C(C)(C)C)cc1 [compound 76] | 
4 | 0.0051 µg/mL | 78% |  |  | CC1=NN(c2ccc(Cl)c(Cl)c2)C(=O)C1=C(C)NNC(=O)c1ccc(N)cc1 [compound 77] | 
5 | 0.015 µg/mL | 69% |  |  | CC1=NN(c2ccc(Cl)c(Cl)c2)C(=O)C1=C(C)NNC(=O)c1cccc(N)c1 [compound 78] | 
6 | 0.16 µg/mL | 81% |  |  | CC1=NN(c2ccc(Cl)c(Cl)c2)C(=O)C1=C(C)NNC(=O)c1ccc(C(F)(F)F)cc1 [compound 79] | 
7 | 0.64 µg/mL | 71% |  |  | CC1=NN(c2ccc(Cl)c(Cl)c2)C(=O)C1=C(C)NNC(=O)c1ccc(C(C)(C)C)cc1 [compound 80] | 
8 | 0.0072 µg/mL | 84% |  |  | CC1=NN(c2ccc(C(C)(C)C)cc2)C(=O)C1=C(C)NNC(=O)c1cccc(O)c1 [compound 81] | 
9 | 0.026 µg/mL | 84% |  |  | CC1=NN(c2ccc(C)c(C)c2)C(=O)C1=C(C)NNC(=O)c1cccc(O)c1 [compound 82] | 
10 |  |  |  |  | CC1=NN(c2ccc(Cl)c(Cl)c2)C(=O)C1=C(C)NNC(=O)c1cccc(O)c1 [compound 83] | EC50 (human TPO receptor [1]; read-out: EC50 (ng/ml) (converted)): 14.5 nM; Emax (human TPO receptor [1]; value in the presence of 10 ng/ml TPO taken as 100% standard, method of Assay Example 1, read-out: Efficacy (%) (maximal growth rate)): 78%
11 | 0.13 µg/mL | 109% |  |  | CC1=NN(c2cccc([N+](=O)[O-])c2)C(=O)C1=C(C)NNC(=O)c1cccc([N+](=O)[O-])c1 [compound 84] | 
12 | 0.021 µg/mL | 105% |  |  | CC1=NN(c2cccc([N+](=O)[O-])c2)C(=O)C1=C(C)NNC(=O)c1ccc(O)cc1O [compound 86] | 
13 | 0.6 µg/mL | 71% |  |  | CC1=NN(c2ccccn2)C(=O)C1=C(C)NNC(=O)c1ccc(O)cc1O [compound 87] | 
14 | 0.13 µg/mL | 70% |  |  | CC1=NN(c2cccc([N+](=O)[O-])c2)C(=O)C1=C(C)NNC(=O)c1ccc(C(C)(C)C)cc1 [compound 88] | 
15 | 0.039 µg/mL | 68% |  |  | CC1=NN(c2cccc(C(F)(F)F)c2)C(=O)C1=C(C)NNC(=O)c1cccc(N)c1 [compound 89] | 
16 | 0.021 µg/mL | 76% |  |  | CC1=NN(c2cccc(C(F)(F)F)c2)C(=O)C1=C(C)NNC(=O)c1ccc(N)cc1 [compound 90] | 
17 | 0.024 µg/mL | 81% |  |  | CC1=NN(c2ccc(C(F)(F)F)cc2)C(=O)C1=C(C)NNC(=O)c1cccc(N)c1 [compound 91] | 
18 | 0.0055 µg/mL | 82% |  |  | CC1=NN(c2ccc(C(F)(F)F)cc2)C(=O)C1=C(C)NNC(=O)c1ccc(N)cc1 [compound 92] | 
19 | 0.0043 µg/mL | 84% |  |  | CC1=NN(c2ccc(C)c(C)c2)C(=O)C1=CNNC(=O)c1ccc(O)cc1O [compound 93] | 
20 |  |  | 0.0033 µg/mL | 95% | CC(NNC(=O)c1ccc(O)cc1O)=C1C(=O)N(c2ccc(C)c(C)c2)N=C1C(F)(F)F [compound 94] | 
21 |  |  | 0.052 µg/mL | 71% | COC(=O)c1ccc(C(=O)NNC(C)=C2C(=O)N(c3ccc(C)c(C)c3)N=C2C(F)(F)F)cc1 [compound 95] | 
22 |  |  | 0.0033 µg/mL | 93% | CC(NNC(=O)c1ccc(C(=O)O)cc1)=C1C(=O)N(c2ccc(C)c(C)c2)N=C1C(F)(F)F [compound 96] | 
23 |  |  | 0.025 µg/mL | 94% | CC1=NN(c2ccc(C(C)(C)C)cc2)C(=O)C1=CNNC(=O)c1ccc(C(=O)O)cc1 [compound 97] | 
24 |  |  | 0.031 µg/mL | 96% | COC(=O)c1ccc(C(=O)NNC(C)=C2C(=O)N(c3ccc(C(C)(C)C)cc3)N=C2C)s1 [compound 98] | 
25 |  |  | 0.0039 µg/mL | 110% | CC1=NN(c2ccc(C(C)(C)C)cc2)C(=O)C1=C(C)NNC(=O)c1ccc(C(=O)O)s1 [compound 99] | 
26 |  |  | 0.059 µg/mL | 107% | CC1=NN(c2ccc3ccccc3n2)C(=O)C1=C(C)NNC(=O)c1ccc(C(=O)O)cc1 [compound 100] | 
27 |  |  | 0.018 µg/mL | 100% | COC(=O)c1ccc(C(=O)NNC(C)=C2C(=O)N(c3ccc(Cl)nn3)N=C2C)cc1 [compound 101] | 
28 |  |  | 0.069 µg/mL | 100% | CC1=NN(c2ccc(C(F)(F)F)cn2)C(=O)C1=C(C)NNC(=O)c1ccc(C(=O)O)cc1 [compound 102] | 
29 |  |  |  | 90% | CC1=NN(c2ccc(C(C)(C)C)cc2)C(=O)C1=C(C)NNC(=O)c1ccc(-c2nnn[nH]2)cc1 [compound 103] | EC50 (human TPO receptor [2]; read-out: EC50T (concentration yielding 50% of the growth observed with 10 ng/ml TPO) (converted)): 10.5 nM
